Type in all cases: cell-based
Experiment [1] has as its system Pseudomonas aeruginosa, ATCC 9027. Kind of experiment: Sanitization study 1: AxiChrom 300 column packed with resin inoculated with challenging organism, sanitized with peracetic acid. The method, then:
(§1) A predefined sanitization method based on peracetic acid (PAA) as sanitization agent was evaluated in an AxiChrom™ 300 column (GE Healthcare) packed with agarose beads, as used in the MabSelect™ SuRe Protein A resin (GE Healthcare), by triplicate studies using P. aeruginosa as challenging organism. All parts in contact with the process flow including the resin were pre-cleaned, challenged, sanitized and evaluated. Microbial sampling was performed at predetermined sites on the system. Flow through samples were collected from the process chamber during the run and from the flush channel, process chamber and resin valve after finishing the sanitization method. Additional flow through samples were collected after five to six days of clean hold. Test methods used are presented below. The results were evaluated against stated acceptance criteria.
(§2) Pseudomonas aeruginosa, ATCC 9027, Gram negative bacteria
(§3) 1×10^7 CFU/ml or CFU/unit (CFU=Colony forming unit) […]
(§4) TSA plates streaked with P. aeruginosa ATCC 9027 (in-house glycerol stocks) were incubated in 37° C. over night (O.N.). […] O.N. Based on measured optical densities (ODs) of the inoculates and the assumption that 1 OD≈2×10^9 CFU/mL for P. aeruginosa, calculations were made on the volumes needed of the inoculate to be added to the resin slurry suspended in 50 mM NaCl. […] The microorganism concentrations were determined with test method 5. […]

For experiment [2] the test system is unchanged. Kind of experiment: Sanitization study 3: dual adapter strokes, 100 mM PAA in flush channel, resin valve opened and closed twice, 6 day clean hold. On the procedure: as §1, §2, §3, §4
Experiment [3] shares this test system. Kind of experiment: Sanitization study 2: dual adapter strokes, 100 mM PAA in flush channel, slurry chased with 20 mM PAA, 5 day clean hold. The method, then:
as §1, §2, §3, §4

For the compound `CC(=O)OO` [PAA, peracetic acid], in experiment [1], the “Outcome against acceptance criteria, study 1” value was “did not meet the acceptance criteria”. The “Result study 1, resin after sanitization” value in experiment [1] (test method 6 agar plate, 20 mM PAA) was 0 CFU/g. Further, the “Outcome against acceptance criteria, study 3” value in experiment [2] is recorded as “met the acceptance criteria”. Further, in experiment [2] (all sampling points), the “Challenging organism found after sanitization, study 3” value is “no challenging organism was discovered”. Further, the “Outcome against acceptance criteria, study 2” value in experiment [3] (positive control G showed no challenging organism) is “did meet the acceptance criteria”. The “Result study 2, challenging organism in consolidation effluent / water rinse flowthrough after chasing slurry with 20 mM PAA” value in experiment [3] (test method 5 viable count, samples G and J, before the sanitization method) is given as 0 CFU/mL.

The values above are taken from patent US12280168B2, “Method for sanitization of a chromatography column” (Cytiva Sweden AB, priority 2019, dated 2025).
